Measured values from patent US9994547B2, “Heteroarylamide inhibitors of TBK1” (Takeda Pharmaceutical Company Limited, priority 2014, dated 2018).

The compounds below were run against Full length human TBK1 (Homo sapiens (Human), UniProt Q9UHD2) (assay: Inhibition of TBK1 Enzyme (Example A)). Conditions: -log(IC50), IC50 molar; 3 nM TBK1, 25 μM ATP, 60 min RT.
Sequence of Full length human TBK1 (Q9UHD2 whole entry): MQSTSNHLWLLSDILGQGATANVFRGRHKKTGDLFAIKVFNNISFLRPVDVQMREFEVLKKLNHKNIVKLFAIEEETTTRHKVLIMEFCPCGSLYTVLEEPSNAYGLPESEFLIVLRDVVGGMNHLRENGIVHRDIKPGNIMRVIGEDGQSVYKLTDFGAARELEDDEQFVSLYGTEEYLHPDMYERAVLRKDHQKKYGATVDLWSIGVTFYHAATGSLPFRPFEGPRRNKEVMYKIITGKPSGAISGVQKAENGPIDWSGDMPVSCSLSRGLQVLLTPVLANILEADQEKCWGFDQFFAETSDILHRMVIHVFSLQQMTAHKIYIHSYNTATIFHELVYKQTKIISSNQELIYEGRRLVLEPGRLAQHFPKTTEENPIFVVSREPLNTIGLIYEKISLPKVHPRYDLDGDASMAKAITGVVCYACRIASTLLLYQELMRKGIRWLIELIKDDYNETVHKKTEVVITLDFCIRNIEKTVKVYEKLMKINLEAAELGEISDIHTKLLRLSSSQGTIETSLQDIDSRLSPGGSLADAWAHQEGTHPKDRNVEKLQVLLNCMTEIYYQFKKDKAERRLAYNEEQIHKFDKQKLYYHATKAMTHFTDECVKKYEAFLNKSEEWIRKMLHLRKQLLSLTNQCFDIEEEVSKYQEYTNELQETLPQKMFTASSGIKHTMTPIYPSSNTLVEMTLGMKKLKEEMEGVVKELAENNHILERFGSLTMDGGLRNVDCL
Type: biochemical
Procedure: Full length human TBK1 with an N-terminal His-tag was cloned into the pFastBacl vector and was transfected into Sf9 cells. 72 hours later the virus was harvested and amplified through two additional rounds of infections. Then 400 mL of the resulting virus stock was used to infect 10 L of Sf9 cells at a density of 2×10^6 cells/mL. Cell pellets were harvested 48 hours post infection and were lysed by freeze-thaw, homogenization and sonication in binding buffer (25 mM Tris pH7.6, 1 M NaCl, 10 mM imidazole, 0.5 mM TCEP) plus 0.1% Triton X-100 and complete protease inhibitor cocktail. The lysate was spun and the supernatant was purified with a HisTrap FF crude and a Superdex 200 pg column.
TBK1 inhibition is determined using a 384 well plate format in buffer containing 20 mM Hepes, pH 7.4, 10 mM MgCl2, 1 mM EDTA, 0.01% Brij-L23, 1 mM DTT. Each test compound is prepared in DMSO using 2.5-fold serial dilutions for 11 data points, which are added to the buffer so that each dilution contains 1% DMSO. To each well is added 2 μL of 1 μM 5FAM-DRHDSGLDSMKDE-NH2 (in buffer), 2 μL of diluted test compound (1% DMSO in buffer), and 5 μL of 3 nM TBK1 and 25 μM ATP (in buffer). The reaction mixture is incubated at RT for 60 min, and quenched by adding 20 mM Hepes, pH 7.4, 10 mM MgCl2, 1 mM EDTA, 0.01% Brij-L23, 1 mM DTT+25 mM EDTA. To quantify the fluorescent-labeled substrate and product following reaction, the test plate is loaded on a Caliper LC-3000, which measures percent of conversion by microfluidic-based separation. Corresponding IC50 values are calculated by non-linear curve fitting of the compound concentrations and percent of inhibition to the standard IC50 equation and reported as pIC50, i.e., −log(IC50), where IC50 is the molar concentration.
`CC1(O)CCN(C(=O)CNc2cc(-c3cnc(NC(=O)C4CC4)cn3)ccc2C#N)C1` (centres unmarked) [Example 132, N-(5-(4-cyano-3-((2-(3-hydroxy-3-methylpyrrolidin-1-yl)-2-oxoethyl)amino)phenyl)pyrazin-2-yl)cyclopropanecarboxamide] was tested, and the “TBK1 Inhibition (pIC50)” value was 6.2. In the case of `CN(C)C(=O)CNc1cc(-c2cnc(NC(=O)C3CC3)cn2)cnc1C#N` [Example 122, N-(5-(6-cyano-5-((2-(dimethylamino)-2-oxoethyl)amino)pyridin-3-yl)pyrazin-2-yl)cyclopropanecarboxamide], the “TBK1 Inhibition (pIC50)” value is reported as 7.0. With `CN(C(=O)CNc1cc(-c2cnc(NC(=O)C3CC3)cn2)cnc1C#N)C1CCOC1` (centres unmarked) [Example 71, N-(5-(6-cyano-5-((2-(methyl(tetrahydrofuran-3-yl)amino)-2-oxoethyl)amino)pyridin-3-yl)pyrazin-2-yl)cyclopropanecarboxamide] the “TBK1 Inhibition (pIC50)” value was 6.6. With `CN(C)C(=O)C(CO)Nc1cc(-c2cnc(NC(=O)C3CC3)cn2)cnc1C#N` [Example 128, (S)-N-(5-(6-cyano-5-((1-(dimethylamino)-3-hydroxy-1-oxopropan-2-yl)amino)pyridin-3-yl)pyrazin-2-yl)cyclopropanecarboxamide] the “TBK1 Inhibition (pIC50)” value was 7.1. `CC(NC(=O)[C@H](C)Nc1cc(-c2cnc(NC(=O)C3CC3)cn2)cnc1C#N)C(F)F` (stereo partly drawn) [Example 119, N-(5-(6-cyano-5-(((2S)-1-((1,1-difluoropropan-2-yl)amino)-1-oxopropan-2-yl)amino)pyridin-3-yl)pyrazin-2-yl)cyclopropanecarboxamide] was tested, and the “TBK1 Inhibition (pIC50)” value was 8.1. In the case of `COC1CN(C(=O)[C@H](C)Nc2cc(-c3cnc(NC(=O)C4CC4)cn3)ccc2C#N)C1` [Example 16, (S)-N-(5-(4-cyano-3-((1-(3-methoxyazetidin-1-yl)-1-oxopropan-2-yl)amino)phenyl)pyrazin-2-yl)cyclopropanecarboxamide], the “TBK1 Inhibition (pIC50)” value is reported as 6.3. In the case of `C[C@H](Nc1cc(-c2cnc(NC(=O)C3CC3)cn2)cnc1C#N)C(=O)N(C)CC(F)F` [Example 53, (S)-N-(5-(6-cyano-5-((1-((2,2-difluoroethyl)(methyl)amino)-1-oxopropan-2-yl)amino)pyridin-3-yl)pyrazin-2-yl)cyclopropanecarboxamide], the “TBK1 Inhibition (pIC50)” value is reported as 8.6. For `CC(Nc1cc(-c2cnc(NC(=O)C3CC3)cn2)cnc1C#N)C(=O)N(C)CC#N` (centres unmarked) [Example 43, N-(5-(6-cyano-5-((1-((cyanomethyl)(methyl)amino)-1-oxopropan-2-yl)amino)pyridin-3-yl)pyrazin-2-yl)cyclopropanecarboxamide], the “TBK1 Inhibition (pIC50)” value was 7.7. `CCC(Nc1cc(-c2cnc(NC(=O)C3CC3)cn2)ccc1C#N)C(=O)N(C)C` (centres unmarked) [Example 6, N-(5-(4-cyano-3-((1-(dimethylamino)-1-oxobutan-2-yl)amino)phenyl)pyrazin-2-yl)cyclopropanecarboxamide] was tested, and the “TBK1 Inhibition (pIC50)” value was 8.1. For `CC(C#N)NC(=O)CNc1cc(-c2cnc(NC(=O)C3CC3)cn2)cnc1C#N` (centres unmarked) [Example 59, N-(5-(6-cyano-5-((2-((1-cyanoethyl)amino)-2-oxoethyl)amino)pyridin-3-yl)pyrazin-2-yl)cyclopropanecarboxamide], the “TBK1 Inhibition (pIC50)” value was 6.7. In the case of `N#Cc1ncc(-c2cnc(NC(=O)C3CC3)cn2)cc1NCC(=O)N1CCOC1C(F)(F)F` (centres unmarked) [Example 64, N-(5-(6-cyano-5-((2-oxo-2-(2-(trifluoromethyl)oxazolidin-3-yl)ethyl)amino)pyridin-3-yl)pyrazin-2-yl)cyclopropanecarboxamide], the “TBK1 Inhibition (pIC50)” value is reported as 7.5. With `C[C@@H](Nc1cc(-c2cnc(NC(=O)C3CC3)cn2)cnc1C#N)C(=O)N(C)C` [Example 30, (R)-N-(5-(6-cyano-5-((1-(dimethylamino)-1-oxopropan-2-yl)amino)pyridin-3-yl)pyrazin-2-yl)cyclopropanecarboxamide] the “TBK1 Inhibition (pIC50)” value was 5.8. With `CCNC(=O)CNc1cc(-c2cnc(NC(=O)C3CC3)cn2)ccc1C#N` [Example 124, N-(5-(4-cyano-3-((2-(ethylamino)-2-oxoethyl)amino)phenyl)pyrazin-2-yl)cyclopropanecarboxamide] the “TBK1 Inhibition (pIC50)” value was 6.5. With `C[C@H](Nc1cc(-c2cnc(NC(=O)C3CC3)cn2)cnc1C#N)C(=O)N(CCO)CC(F)F` [Example 79, (S)-N-(5-(6-cyano-5-((1-((2,2-difluoroethyl)(2-hydroxyethyl)amino)-1-oxopropan-2-yl)amino)pyridin-3-yl)pyrazin-2-yl)cyclopropanecarboxamide] the “TBK1 Inhibition (pIC50)” value was 6.8. In the case of `CN(C)C(=O)CNc1cc(-c2cnc(NC(=O)C3CC3)cn2)ccc1C#N` [Example 123, N-(5-(4-cyano-3-((2-(dimethylamino)-2-oxoethyl)amino)phenyl)pyrazin-2-yl)cyclopropanecarboxamide], the “TBK1 Inhibition (pIC50)” value is reported as 7.2. `COCCN(CC(F)(F)F)C(=O)CNc1cc(-c2cnc(NC(=O)C3CC3)cn2)cnc1C#N` [Example 77, N-(5-(6-cyano-5-((2-((2-methoxyethyl)(2,2,2-trifluoroethyl)amino)-2-oxoethyl)amino)pyridin-3-yl)pyrazin-2-yl)cyclopropanecarboxamide] was tested, and the “TBK1 Inhibition (pIC50)” value was 7.2. In the case of `N#Cc1ncc(-c2cnc(NC(=O)C3CC3)cn2)cc1NCC(N)=O` [Example 121, N-(5-(5-((2-amino-2-oxoethyl)amino)-6-cyanopyridin-3-yl)pyrazin-2-yl)cyclopropanecarboxamide], the “TBK1 Inhibition (pIC50)” value is reported as 5.6. For `C[C@H](Nc1cc(-c2cnc(NC(=O)C3CC3)cn2)cnc1C#N)C(=O)N1CCO[C@@H]1C(F)(F)F` [Example 60, N-(5-(6-cyano-5-((S)-1-oxo-1-((R)-2-(trifluoromethyl)oxazolidin-3-yl)propan-2-ylamino)pyridin-3-yl)pyrazin-2-yl)cyclopropanecarboxamide], the “TBK1 Inhibition (pIC50)” value was 7.4. For `N#Cc1ncc(-c2cnc(NC(=O)C3CC3)cn2)cc1NCC(=O)N1CCOC(C(F)(F)F)C1` (centres unmarked) [Example 100, N-(5-(6-cyano-5-((2-oxo-2-(2-(trifluoromethyl)morpholino)ethyl)amino)pyridin-3-yl)pyrazin-2-yl)cyclopropanecarboxamide], the “TBK1 Inhibition (pIC50)” value was 6.5. With `CN(C)C(=O)C(CC(F)F)Nc1cc(-c2cnc(NC(=O)C3CC3)cn2)ccc1C#N` (centres unmarked) [Example 8, N-(5-(4-cyano-3-((1-(dimethylamino)-4,4-difluoro-1-oxobutan-2-yl)amino)phenyl)pyrazin-2-yl)cyclopropanecarboxamide] the “TBK1 Inhibition (pIC50)” value was 8.1. In the case of `COC1CN(C(=O)CNc2cc(-c3cnc(NC(=O)C4CC4)cn3)ccc2C#N)C1` [Example 22, N-(5-(4-cyano-3-((2-(3-methoxyazetidin-1-yl)-2-oxoethyl)amino)phenyl)pyrazin-2-yl)cyclopropanecarboxamide], the “TBK1 Inhibition (pIC50)” value is reported as 6.0. With `CN(C)C(=O)C(CCO)Nc1cc(-c2cnc(NC(=O)C3CC3)cn2)cnc1C#N` (centres unmarked) [Example 115, N-(5-(6-cyano-5-((1-(dimethylamino)-4-hydroxy-1-oxobutan-2-yl)amino)pyridin-3-yl)pyrazin-2-yl)cyclopropanecarboxamide] the “TBK1 Inhibition (pIC50)” value was 6.9. For `CN(CC(F)F)C(=O)[C@H](CO)Nc1cc(-c2cnc(NC(=O)C3CC3)cn2)cnc1C#N` [Example 58, (S)-N-(5-(6-cyano-5-((1-((2,2-difluoroethyl)(methyl)amino)-3-hydroxy-1-oxopropan-2-yl)amino)pyridin-3-yl)pyrazin-2-yl)cyclopropanecarboxamide], the “TBK1 Inhibition (pIC50)” value was 7.3. In the case of `CN(C)C(=O)C(CO)Nc1cc(-c2cnc(NC(=O)C3CC3)cn2)ccc1C#N` (centres unmarked) [Example 18, N-(5-(4-cyano-3-((1-(dimethylamino)-3-hydroxy-1-oxopropan-2-yl)amino)phenyl)pyrazin-2-yl)cyclopropanecarboxamide], the “TBK1 Inhibition (pIC50)” value is reported as 7.5. In the case of `N#Cc1ncc(-c2cnc(NC(=O)C3CC3)cn2)cc1NCC(=O)N1CCC1C(F)(F)F` (centres unmarked) [Example 94, N-(5-(6-cyano-5-((2-oxo-2-(2-(trifluoromethyl)azetidin-1-yl)ethyl)amino)pyridin-3-yl)pyrazin-2-yl)cyclopropanecarboxamide], the “TBK1 Inhibition (pIC50)” value is reported as 7.3.

Same assay, conditions: -log(IC50), IC50 molar; 3 nM TBK1, 25 μM ATP, 60 min RT; read-out: TBK1 Inhibition (pIC50) (converted)
An IC50 of 200 nM was found for `N#Cc1ncc(-c2cnc(NC(=O)C3CC3)cn2)cc1NCC(=O)N1CCOC[C@@H]1C(F)(F)F` [Example 101, (R)-N-(5-(6-cyano-5-((2-oxo-2-(3-(trifluoromethyl)morpholino)ethyl)amino)pyridin-3-yl)pyrazin-2-yl)cyclopropanecarboxamide] in this work.
